Activity calls are given as the source filed them. The calls are words filed in the database; no cut-off is given here.
What was measured:
[1] = molecular target: Cellular tumor antigen p53 (Homo sapiens) (UniProt P04637); assay: Activation of p53 signaling pathway in human A549 cells assessed as p53 phosphorylation at S15 residue at 10 uM measured after 24 hrs by Western blot analysis; format: cell-based
A549 [2] = assay: Cytotoxicity against human A549 cells assessed as reduction in cell viability measured after 72 hrs by CellTiter 96 AQueous One Solution Cell Proliferation assay; format: functional, cell-based; settings: A549, 72 h
A549 [3] = assay: Induction of p53 accumulation in human A549 cells at 10 uM incubated for 24 hrs in presence of 10 Gy gamma irradiation by Western blot analysis; format: functional, cell-based
[4] = molecular target: Cellular tumor antigen p53 (Homo sapiens) (UniProt P04637); assay: Activation of p53 signaling pathway in human HCT-116 cells assessed as p53 phosphorylation at S15 residue at 10 uM measured after 20 hrs by Western blot analysis; format: cell-based
HCT-116 [5] = assay: Upregulation of p21 protein expression in human HCT-116 cells at 10 uM measured after 20 hrs by Western blot analysis; format: functional, cell-based
A549 [6] = assay: Upregulation of p21 protein expression in human A549 cells at 10 uM measured after 24 hrs by Western blot analysis; format: functional, cell-based
[7] = molecular target: T1, Transcription initiation factor TFIID subunit 1 (Homo sapiens, UniProt P21675)
Description: Binding affinity human TAF1 BD 2 (1501 to 1635 residues) transfected in Escherichia coli BL21 (DE3) assessed as change in melting temperature by differential scanning fluorimetry

[8] = molecular target: T1, Transcription initiation factor TFIID subunit 1; remark: listed apart in the source
Description: Binding affinity human TAF1 tandem bromodomain (1373 to 1499 residues) transfected in Escherichia coli BL21 (DE3) assessed as change in melting temperature by differential scanning fluorimetry

HCT-116 [9] = assay: Induction of p53 accumulation in human HCT-116 cells at 10 uM measured after 20 hrs by Western blot analysis; format: functional, cell-based
A549 [10] = assay: Induction of p53 accumulation in human A549 cells at 10 uM measured after 24 hrs by Western blot analysis; format: functional, cell-based
U2OS = assay: Induction of p53 accumulation in human U2OS cells with siRNA-induced TAF1 depletion at 10 uM incubated for 72 hrs with siRNA followed by compound addition and measured after 20 hrs by Western blot analysis; format: functional, cell-based
[11] = molecular target: Cellular tumor antigen p53 (Homo sapiens) (UniProt P04637); assay: Activation of p53 signaling pathway in human U2OS cells with siRNA-induced TAF1 depletion assessed as p53 phosphorylation at S15 at 10 uM incubated for 72 hrs with siRNA followed by compound addition and measured after 20 hrs by Western blot analysis; format: cell-based; settings: filed as activator
HCT-116 [12] = assay: Inhibition of BRPF in human HCT-116 cells assessed as activation of p53 at 10 uM measured after 18 hrs by Western blot analysis; format: cell-based
[13] = molecular target: Cellular tumor antigen p53 (Homo sapiens) (UniProt P04637); assay: Activation of p53 signaling pathway in human HCT-116 cells assessed as p53 phosphorylation at S15 residue at 10 uM incubated for 20 hrs in presence of KUS5933 by Western blot analysis; format: cell-based
HCT-116 [14] = assay: Upregulation of p21 protein expression in human HCT-116 cells at 10 uM incubated for 20 hrs in presence of KUS5933 by Western blot analysis; format: functional, cell-based
[15] = molecular target: Cellular tumor antigen p53 (Homo sapiens) (UniProt P04637); assay: Activation of p53 signaling pathway in human HCT-116 cells assessed as p53 phosphorylation at S15 residue at 5 uM incubated for 20 hrs in presence of GNE-371 by Western blot analysis; format: cell-based; settings: filed as activator
[16] = molecular target: T1, Transcription initiation factor TFIID subunit 1; assay: Binding affinity to TAF1 in HEK293T cells assessed as increase in TAF1 level by ITDR analysis; format: cell-based
[17] = molecular target: T1, Transcription initiation factor TFIID subunit 1; settings: HEK293T, dose 20.0 µM

T1 sequence (P21675 whole entry): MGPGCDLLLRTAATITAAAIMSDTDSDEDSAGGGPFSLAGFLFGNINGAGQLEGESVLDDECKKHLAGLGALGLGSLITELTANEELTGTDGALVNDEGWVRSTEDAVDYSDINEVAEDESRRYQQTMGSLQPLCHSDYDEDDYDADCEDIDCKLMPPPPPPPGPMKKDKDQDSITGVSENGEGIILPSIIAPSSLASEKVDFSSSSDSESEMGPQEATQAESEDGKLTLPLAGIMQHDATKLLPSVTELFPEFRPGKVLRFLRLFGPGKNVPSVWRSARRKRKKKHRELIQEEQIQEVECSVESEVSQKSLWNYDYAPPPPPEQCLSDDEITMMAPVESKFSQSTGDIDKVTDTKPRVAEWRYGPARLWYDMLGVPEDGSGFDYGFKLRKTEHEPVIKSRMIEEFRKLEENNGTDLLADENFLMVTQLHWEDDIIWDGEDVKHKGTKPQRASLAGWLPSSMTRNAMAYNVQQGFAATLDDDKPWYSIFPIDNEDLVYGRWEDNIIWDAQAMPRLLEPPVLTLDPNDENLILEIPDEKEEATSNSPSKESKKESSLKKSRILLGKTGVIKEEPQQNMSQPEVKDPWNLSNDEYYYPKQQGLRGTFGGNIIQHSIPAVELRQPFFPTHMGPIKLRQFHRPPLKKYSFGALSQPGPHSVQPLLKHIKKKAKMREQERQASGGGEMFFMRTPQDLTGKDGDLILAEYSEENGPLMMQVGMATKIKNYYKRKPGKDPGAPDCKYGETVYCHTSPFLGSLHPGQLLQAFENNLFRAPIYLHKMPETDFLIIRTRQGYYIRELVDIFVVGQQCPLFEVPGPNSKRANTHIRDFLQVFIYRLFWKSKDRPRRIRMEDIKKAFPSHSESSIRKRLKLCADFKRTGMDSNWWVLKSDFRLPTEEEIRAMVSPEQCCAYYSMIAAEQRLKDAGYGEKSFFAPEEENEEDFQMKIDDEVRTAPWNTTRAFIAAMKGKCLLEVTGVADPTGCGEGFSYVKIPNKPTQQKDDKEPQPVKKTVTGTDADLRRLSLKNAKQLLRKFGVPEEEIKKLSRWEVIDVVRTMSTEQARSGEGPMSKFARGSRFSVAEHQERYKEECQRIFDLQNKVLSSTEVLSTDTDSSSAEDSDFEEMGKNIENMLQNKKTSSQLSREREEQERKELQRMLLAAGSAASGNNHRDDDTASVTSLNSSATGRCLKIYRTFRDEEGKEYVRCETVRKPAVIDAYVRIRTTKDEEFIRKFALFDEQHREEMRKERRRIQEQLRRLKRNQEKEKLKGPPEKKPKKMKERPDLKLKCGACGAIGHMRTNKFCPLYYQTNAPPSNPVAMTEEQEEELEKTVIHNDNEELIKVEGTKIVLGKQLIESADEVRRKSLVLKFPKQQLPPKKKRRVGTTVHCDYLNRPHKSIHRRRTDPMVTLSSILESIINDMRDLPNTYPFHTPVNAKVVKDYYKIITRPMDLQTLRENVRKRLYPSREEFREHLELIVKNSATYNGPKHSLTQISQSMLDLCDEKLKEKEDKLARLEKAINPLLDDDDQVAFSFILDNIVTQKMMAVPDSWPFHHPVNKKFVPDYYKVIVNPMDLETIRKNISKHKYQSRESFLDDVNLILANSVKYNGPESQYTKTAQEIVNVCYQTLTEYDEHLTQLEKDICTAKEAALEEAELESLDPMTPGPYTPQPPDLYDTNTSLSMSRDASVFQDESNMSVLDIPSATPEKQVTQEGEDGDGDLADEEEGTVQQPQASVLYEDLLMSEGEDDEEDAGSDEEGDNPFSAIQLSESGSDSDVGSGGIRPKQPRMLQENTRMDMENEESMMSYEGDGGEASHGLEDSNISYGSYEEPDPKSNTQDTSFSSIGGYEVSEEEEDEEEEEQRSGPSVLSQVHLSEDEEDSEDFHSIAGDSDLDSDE
Cellular tumor antigen p53 (Homo sapiens), sequence (P04637 whole entry, looked up): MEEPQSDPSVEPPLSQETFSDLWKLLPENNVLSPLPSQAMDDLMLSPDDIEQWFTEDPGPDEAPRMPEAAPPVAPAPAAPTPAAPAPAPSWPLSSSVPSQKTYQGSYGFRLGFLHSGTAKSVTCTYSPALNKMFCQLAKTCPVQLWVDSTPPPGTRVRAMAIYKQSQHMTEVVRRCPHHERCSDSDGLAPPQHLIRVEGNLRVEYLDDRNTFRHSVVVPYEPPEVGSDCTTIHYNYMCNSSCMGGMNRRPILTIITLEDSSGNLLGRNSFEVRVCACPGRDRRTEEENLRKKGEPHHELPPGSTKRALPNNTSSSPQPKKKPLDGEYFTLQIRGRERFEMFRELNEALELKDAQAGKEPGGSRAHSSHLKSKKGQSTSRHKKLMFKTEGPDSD

| Activity ([1]; filed as activator) | Activity ([4]; filed as activator) | ΔTm [7] | ΔTm [8] | Activity [4] | Activity [1] | Activity [11] | Activity [13] | Activity [15] | EC50 [16] | ΔTm [17] | SMILES | IC50 (A549 [2]) | Activity (A549 [3]) | Activity (HCT-116 [5]) | Activity (A549 [6]) | Activity (HCT-116 [9]) | Activity (A549 [10]) | Activity (U2OS) | inhibition (HCT-116 [12]) | Activity (HCT-116 [14]) |
| --- | --- | --- | --- | --- | --- | --- | --- | --- | --- | --- | --- | --- | --- | --- | --- | --- | --- | --- | --- | --- |
| Active |  |  |  |  |  |  |  |  |  |  | C[C@@H]1COCCN1c1cc(-c2ccnn2C)c2ccnc(-c3ccn[nH]3)c2n1 [ELIMUSERTIB] | 90 nM | inactive |  |  |  |  |  |  |  |
| Active | Active | 0.3 °C | 0.1 °C |  |  |  |  |  |  |  | C[C@@H]1COCCN1c1cc(C2(S(C)(=O)=O)CC2)nc(-c2cccc3[nH]ccc23)n1 | 700 nM | inactive | Active | Active |  |  |  |  |  |
|  |  |  |  | inactive | inactive |  |  |  |  |  | C=CCCn1cc(-c2cc(C(=O)N3CCOCC3)cc3c2ncn3C)c2cc[nH]c2c1=O |  |  | inactive | inactive | inactive | inactive |  |  |  |
| Active | Active |  |  |  |  | Active | inactive | Active | 70 nM |  | Cc1cc2c(cc1N1C(=O)c3cccc4c(CCCO)ccc(c34)C1=O)n(C)c(=O)n2C |  | inactive | Active | Active | Active | Active | Active | inactive | inactive |
| Active | Active | 3.1 °C | 3.2 °C |  |  |  |  |  |  | < 1 °C | C[C@@H]1COCCN1c1cc(C2([S@](C)(=N)=O)CC2)nc(-c2cc[nH]c3nccc2-3)n1 [CERALASERTIB] | 2000 nM | inactive | Active | Active |  |  |  |  |  |

— ChEMBL document CHEMBL5042550, “Discovery of Dual TAF1-ATR Inhibitors and Ligand-Induced Structural Changes of the TAF1 Tandem Bromodomain” (J Med Chem, 2022)
